Experimental data: ChEMBL document CHEMBL3217491, “Design, synthesis and biological evaluation of imidazopyridine/pyrimidine-chalcone derivatives as potential anticancer agents” (2010)
Calls of active or inactive are those of the source. The calls are words filed in the database; no cut-off is given here.

Experiments:
MCF7 [1] = experiment: Growth inhibition of human MCF7 cells assessed as cell viability at 4 uM after 24 hrs by MTT assay; format: functional, cell-based
786-0 = experiment: Growth inhibition of human 786-0 cells after 48 hrs by SRB assay; format: functional; conditions: 786-0, 48 h
SNB-19 = experiment: Growth inhibition of human SNB19 cells after 48 hrs by SRB assay; format: functional; conditions: SNB-19, 48 h
Malme-3M = experiment: Growth inhibition of human MALME-3M cells after 48 hrs by SRB assay; format: functional
HOP-62 = experiment: Growth inhibition of human HOP62 cells after 48 hrs by SRB assay; format: functional; conditions: HOP-62, 48 h
TK-10 = experiment: Growth inhibition of human TK10 cells after 48 hrs by SRB assay; format: functional; conditions: TK-10, 48 h
DU-145 = experiment: Growth inhibition of human DU145 cells after 48 hrs by SRB assay; format: functional; conditions: DU-145, 48 h
[2] = Growth inhibition of human HCT15 cells after 48 hrs by SRB assay; format: functional; conditions: HCT-15, 48 h
[3] = Growth inhibition of human HOP92 cells after 48 hrs by SRB assay; format: functional; conditions: HOP-92, 48 h
[4] = Growth inhibition of human UO31 cells after 48 hrs by SRB assay; format: functional; conditions: UO-31, 48 h
CAKI-1 = experiment: Growth inhibition of human Caki1 cells after 48 hrs by SRB assay; format: functional; conditions: CAKI-1, 48 h
MDA-MB-231 = experiment: Growth inhibition of human MDA-MB-231 cells after 48 hrs by SRB assay; format: functional; conditions: MDA-MB-231, 48 h
MCF7 [5] = experiment: Cell cycle arrest in human MCF7 cells assessed as accumulation at G0/G1 phase at 4 uM after 24 hrs by propidium iodide staining-based flow cytometry (reference value: 64.04%); format: functional
HT-29 = experiment: Growth inhibition of human HT-29 cells after 48 hrs by SRB assay; format: functional; conditions: HT-29, 48 h
[6] = Growth inhibition of human MOLT4 cells after 48 hrs by SRB assay; format: functional; conditions: MOLT-4, 48 h
NCI-H522 = experiment: Growth inhibition of human NCI-H522 cells after 48 hrs by SRB assay; format: functional; conditions: NCI-H522, 48 h
MDA-MB-435 = experiment: Growth inhibition of human MDA-MB-435 cells after 48 hrs by SRB assay; format: functional; conditions: MDA-MB-435, 48 h
[7] = Growth inhibition of human OVCAR4 cells after 48 hrs by SRB assay; format: functional; conditions: OVCAR-4, 48 h
RPMI-8226 = experiment: Growth inhibition of human RPMI8226 cells after 48 hrs by SRB assay; format: functional; conditions: RPMI-8226, 48 h
U-251 = experiment: Growth inhibition of human U251 cells after 48 hrs by SRB assay; format: functional; conditions: U-251, 48 h
[8] = Growth inhibition of human LOXIMVI cells after 48 hrs by SRB assay; format: functional; conditions: LOX IMVI
[9] = Growth inhibition of human NCI-ADR-RES cells after 48 hrs by SRB assay; format: functional
[10] = Growth inhibition of human OVCAR8 cells after 48 hrs by SRB assay; format: functional; conditions: OVCAR-8, 48 h
[11] = Growth inhibition of human EKVX cells after 48 hrs by SRB assay; format: functional
A549 = experiment: Growth inhibition of human A549 cells after 48 hrs by SRB assay; format: functional; conditions: A549, 48 h
COLO 205 = experiment: Growth inhibition of human COLO205 cells after 48 hrs by SRB assay; format: functional; conditions: COLO 205, 48 h
SR = experiment: Growth inhibition of human SR cells after 48 hrs by SRB assay; format: functional
PC-3 = experiment: Growth inhibition of human PC3 cells after 48 hrs by SRB assay; format: functional; conditions: PC-3, 48 h
[12] = Growth inhibition of human OVCAR3 cells after 48 hrs by SRB assay; format: functional; conditions: OVCAR-3, 48 h
T47D = experiment: Growth inhibition of human T47D cells after 48 hrs by SRB assay; format: functional
[13] = Growth inhibition of human SF539 cells after 48 hrs by SRB assay; format: functional; conditions: SF-539, 48 h
IGROV-1 = experiment: Growth inhibition of human IGROV1 cells after 48 hrs by SRB assay; format: functional; conditions: IGROV-1, 48 h
A498 = experiment: Growth inhibition of human A498 cells after 48 hrs by SRB assay; format: functional; conditions: A498, 48 h
[14] = Growth inhibition of human BT549 cells after 48 hrs by SRB assay; format: functional; conditions: BT-549, 48 h
HCT-116 = experiment: Growth inhibition of human HCT116 cells after 48 hrs by SRB assay; format: functional; conditions: HCT-116, 48 h
CCRF-CEM = experiment: Growth inhibition of human CCRF-CEM cells after 48 hrs by SRB assay; format: functional
SF-268 = experiment: Growth inhibition of human SF268 cells after 48 hrs by SRB assay; format: functional; conditions: SF-268, 48 h
[15] = Growth inhibition of human UACC257 cells after 48 hrs by SRB assay; format: functional; conditions: UACC-257, 48 h
SK-OV-3 = experiment: Growth inhibition of human SKOV3 cells after 48 hrs by SRB assay; format: functional; conditions: SK-OV-3, 48 h
NCI-H460 = experiment: Growth inhibition of human NCI-H460 cells after 48 hrs by SRB assay; format: functional; conditions: NCI-H460, 48 h
MDA-MB-468 = experiment: Growth inhibition of human MDA-MB-468 cells after 48 hrs by SRB assay; format: functional; conditions: MDA-MB-468, 48 h
K562 = experiment: Growth inhibition of human K562 cells after 48 hrs by SRB assay; format: functional; conditions: K562, 48 h
M14 = experiment: Growth inhibition of human M14 cells after 48 hrs by SRB assay; format: functional; conditions: M14, 48 h
SK-MEL-5 = experiment: Growth inhibition of human SK-MEL-5 cells after 48 hrs by SRB assay; format: functional; conditions: SK-MEL-5, 48 h
NCI-H23 = experiment: Growth inhibition of human NCI-H23 cells after 48 hrs by SRB assay; format: functional; conditions: NCI-H23, 48 h
MCF7 [16] = experiment: Growth inhibition of human MCF7 cells after 48 hrs by SRB assay; format: functional; conditions: MCF7, 48 h
KM12 = experiment: Growth inhibition of human KM12 cells after 48 hrs by SRB assay; format: functional; conditions: KM12, 48 h
NCI-H322M = experiment: Growth inhibition of human NCI-H322M cells after 48 hrs by SRB assay; format: functional
NCI-H226 = experiment: Growth inhibition of human NCI-H226 cells after 48 hrs by SRB assay; format: functional; conditions: NCI-H226, 48 h
SNB-75 = experiment: Growth inhibition of human SNB75 cells after 48 hrs by SRB assay; format: functional; conditions: SNB-75, 48 h
[17] = Growth inhibition of human HCC2998 cells after 48 hrs by SRB assay; format: functional; conditions: HCC 2998, 48 h
MCF7 [18] = experiment: Cell cycle arrest in human MCF7 cells assessed as accumulation at S phase at 4 uM after 24 hrs by propidium iodide staining-based flow cytometry (reference value: 20.17%); format: functional
SN12C = experiment: Growth inhibition of human SN12C cells after 48 hrs by SRB assay; format: functional
[19] = Growth inhibition of human OVCAR5 cells after 48 hrs by SRB assay; format: functional; conditions: OVCAR-5, 48 h
[20] = Growth inhibition of human UACC62 cells after 48 hrs by SRB assay; format: functional; conditions: UACC-62, 48 h
SK-MEL-2 = experiment: Growth inhibition of human SK-MEL-2 cells after 48 hrs by SRB assay; format: functional; conditions: SK-MEL-2, 48 h
HL-60(TB) = experiment: Growth inhibition of human HL-60(TB) cells after 48 hrs by SRB assay; format: functional; conditions: HL-60, 48 h
MCF7 [21] = experiment: Cell cycle arrest in human MCF7 cells assessed as accumulation at G2/M phase at 4 uM after 24 hrs by propidium iodide staining-based flow cytometry (reference value: 15.79%); format: functional
[22] = Growth inhibition of human SF295 cells after 48 hrs by SRB assay; format: functional; conditions: SF-295, 48 h
ACHN = experiment: Growth inhibition of human ACHN cells after 48 hrs by SRB assay; format: functional

Question: For `COc1ccc(/C=C/C(=O)c2cc(OC)c(OC)c(OC)c2)cc1O`, which inhibition (MCF7 [1]) is on record?
Answer: Active

Question: Which results are given for `COc1cc(C(=O)/C=C/c2c(-c3cccs3)nc3ccccn23)cc(OC)c1OC`?
Answer: GI50 (786-0): 2.31 µM; GI50 (SNB-19): 2.1 µM; GI50 (Malme-3M): 3.65 µM; GI50 (HOP-62): 2.88 µM; GI50 (TK-10): 3.78 µM; GI50 (DU-145): 1.9 µM; GI50 [2]: 1.6 µM; GI50 [3]: 0.28 µM; GI50 [4]: 1.07 µM; GI50 (CAKI-1): 2.31 µM; GI50 (MDA-MB-231): 3.08 µM; Activity (MCF7 [5]): 92.41%; GI50 (HT-29): 2.09 µM; GI50 [6]: 1.77 µM; GI50 (NCI-H522): 1.1 µM; GI50 (MDA-MB-435): 2.49 µM; GI50 [7]: 3.13 µM; GI50 (RPMI-8226): 1.34 µM; GI50 (U-251): 1.66 µM; GI50 [8]: 1.87 µM; GI50 [9]: 1.89 µM; GI50 [10]: 1.68 µM; GI50 [11]: 3.12 µM; GI50 (A549): 2.04 µM; GI50 (COLO 205): 1.77 µM; GI50 (SR): 1.23 µM; GI50 (PC-3): 2.63 µM; GI50 [12]: 2.44 µM; GI50 (T47D): 1.72 µM; GI50 [13]: 1.87 µM; GI50 (IGROV-1): 1.89 µM; GI50 (A498): 0.98 µM; inhibition (MCF7 [1]): Active; GI50 [14]: 1.86 µM; GI50 (HCT-116): 1.63 µM; GI50 (CCRF-CEM): 1.66 µM; GI50 (SF-268): 2.37 µM; GI50 [15]: 1.88 µM; GI50 (SK-OV-3): 3.01 µM; GI50 (NCI-H460): 1.42 µM; GI50 (MDA-MB-468): 1.72 µM; GI50 (K562): 1.51 µM; GI50 (M14): 2.08 µM; GI50 (SK-MEL-5): 1.33 µM; GI50 (NCI-H23): 2.2 µM; GI50 (MCF7 [16]): 1.12 µM; GI50 (KM12): 1.32 µM; GI50 (NCI-H322M): 3.02 µM; GI50 (NCI-H226): 2.04 µM; GI50 (SNB-75): 2.68 µM; GI50 [17]: 1.96 µM; Activity (MCF7 [18]): 6.48%; GI50 (SN12C): 2.44 µM; GI50 [19]: 2.64 µM; GI50 [20]: 1.61 µM; GI50 (SK-MEL-2): 2.27 µM; GI50 (HL-60(TB)): 2.01 µM; Activity (MCF7 [21]): 1.11%; GI50 [22]: 2.24 µM; GI50 (ACHN): 2.09 µM
